# Measurements: US10463764B2, “3D tissue-engineered bone marrow for personalized therapy and drug development” (Washington University, priority 2014, dated 2019)
# pIC50: −log10 of the molar value.
# Assays:
# MM1s cells [1] = assay: Effect of ECM component fibronectin on growth of MM cells inside 3DTEBM, by flow cytometry; type: cell-based; conditions: 100 ng/ml, day 3
# Protocol: For flow cytometry analysis, an internal control (MM1s-calcein violet) was added and a minimum of 5,000 events were acquired using BD FACS Aria (BD Biosciences) and DiVa v6.1.2 software. The data was analyzed using FlowJo program v10 (Ashland, Oreg.). MM cells or CD138^+ cells were identified by gating cells with a high GFP/DiO signal (excitement, 488 nm; filter, 530/30 nm); Hs5 stroma or CD138-stromal cells were identified by gating cells with a high DiD signal (excitement, 638 nm; filter, 660/20 nm); HUVECs were identified by gating cells with a high DiI signal (excitement, 488 nm; filter, 585/15 nm); and MM1s cells control were identified by gating cells with a high UV signal (excitement, 355 nm; filter, 450/50 nm). A 3DTEBM was digested with type I collagenase at 25 mg/ml for 2 h at 37° C. Classic bi-dimensional (2D) cultures were washed with PBS and removed by pipetting. The effect of cell density (5×10^3-50×10^3 cells/well) of MM1s-GFP, Hs5 stroma-DiD, CD138− stromal cells-DiD, and HUVECs-DiI on growth rate in mono-cultures at day 3 inside 3DTEBM was measured by flow cytometry. […]
# MM1s cells [2] = assay: Drug survival of MM1s cells in mono- or multi-culture in classic 2D cultures and 3DTEBM, by flow cytometry; type: cell-based; conditions: Homo sapiens, MM1.S, 24 h
# Protocol: MM1s-GFP cells (30×10^3 cells/well) were cultured in mono-culture or multi-culture conditions [CD138^− stromal cells-DiD (10×10^3 cells/well), HUVECs-DiD (10×10^3 cells/well), and fibronectin 100 ng/ml)] in 3DTEBM and classic 2D cultures. After 2 h gelification of 3DTEBM or adhesion in 2D cultures (cells were culture in 50 μl), 50 ul of RPMI completed media was added on top of 3DTEBM. Then, 50 μl of bortezomib (0-30 nM), carfilzomib (0, 10 nM), or melphalan (0, 1 μM) solutions were added on top of 2D cultures and 3DTEBM for 24 h. Cell proliferation assay was assessed by flow cytometry as previously described. Briefly, drug-media was removed, 3DTEBM were digested and cells of 2D cultures detached by pipetting. Effect of drug treatment in MM1s-GFP cells was measured and normalized to non-treated conditions.
# Finally, the effect of increasing concentrations of bortezomib on the survival of MM1s cells grown in mono-culture or multi-culture in 3DTEBM and 2D cultures was measured.
Compound,increase of growth of MM cells in 3DTEBM (MM1s cells [1]),pIC50 (MM1s cells [2]; 3DTEBM mono-culture),"pIC50 (MM1s cells [2]; 3DTEBM multi-culture (CD138- stromal cells, HUVECs, fibronectin))",pIC50 (MM1s cells [2]; classic 2D mono-culture),"pIC50 (MM1s cells [2]; classic 2D multi-culture (CD138- stromal cells, HUVECs, fibronectin))"
fibronectin,about 25%,,,,
CC(C)C[C@H](NC(=O)[C@H](Cc1ccccc1)NC(=O)c1cnccn1)B(O)O [bortezomib],,7.70 to 7.82,~7.60,~8.30,~8.15
